In PMC8537953 (Viruses, 2021):
Where two headings read alike, the source gives them in different places.

Experiments:
[1] = human, in vivo, cited from earlier work
SARS-CoV-2 [2] = assay: microbe, parasite or virus in culture; format: cell-based; details: Severe acute respiratory syndrome coronavirus 2, Vero C1008, 6 h, read-out: % inhibition of SARS-CoV-2 infection, post-entry treatment
SARS-CoV-2 [3] = details: read-out: EC50 against SARS-CoV-2; cited from earlier work
[4] = cited from earlier work
influenza A = details: read-out: in vitro EC50 (influenza A); cited from earlier work
in vitro = details: human

## CC(N)C12CC3CC(CC(C3)C1)C2 (centres unmarked) [Rimantadine, rimantadine]
[1]
  Cmax: 2200 nM
SARS-CoV-2 [2]
  inhibition at 230 µM: > 99%

## CCC(CC)COC(=O)[C@H](C)N[P@](=O)(OC[C@H]1O[C@@](C#N)(c2ccc3c(N)ncnn23)[C@H](O)[C@@H]1O)Oc1ccccc1 [Remdesivir, remdesivir]
SARS-CoV-2 [3]
  EC50: 2500 nM

## CC12CC3CC(C)(C1)CC(N)(C3)C2 [Memantine, memantine]
[4]; ref FDA reports
  PPB, plasma protein binding, % of compound bound to plasma proteins: 45%

## NC12CC3CC(CC(C3)C1)C2 [Amantadine, amantadine]
Influenza A
  EC50: 16 µM
[1]; 200 mg
  Cmax: 2700 nM
[4]; plasma
  PPB, plasma protein binding, % of compound bound to plasma proteins: 67%
In vitro
  viability: > 50%
